The values below come from patent EP0443560A2, “HIV protease inhibitors” (priority 1990, dated 1991).

Like-named read-outs stand apart in the source and are kept apart here.

One experiment deals with T1, HIV protease (Human immunodeficiency virus type 1 group M subtype B, UniProt P04585).
T1 construct: HIV protease was expressed in E. coli [construct pBRT1 prt⁺; made in house; host or cells: E. coli
In words: Recombinant HIV Protease HPLC Assay. The experiment is classed as biochemical. From the text: The procedure is based on the capacity of the test compound to inhibit enzymatic cleavage by HIV protease of a decapeptide (the substrate) having an amino acid sequence which includes a known HIV protease cleavage site of a HIV polyprotein; see H.G. Krausslich et al., Proc. Natl. Acad. Sci. USA, 86, 807 (1989). Details of this assay together with the results obtained for exemplified compounds of formula 1 are described in the examples hereinafter.
Recombinant HIV Protease HPLC Assay:
HIV protease was expressed in E. coli [construct pBRT1 prt⁺, see W.G. Farmerie et al., Science, 236, 305 (1987)], according to the following protocol: Unless stated otherwise, all solutions are aqueous solutions.
E. coli cells containing the pBRT1 prt⁺ plasmid were used to inoculate a seed culture media composed of Luria-Bertani Broth containing 100µg/mL of ampicillin. Flasks were incubated at 37° under agitation for 17 h. Production flasks containing sterile M9 broth, supplemented with 100µg/ml of ampicillin, were inoculated at a level of 1% (v/v) using the seed culture described above. Total volume in each production flask was 500 mL in a 2 L Erlenmeyer flask. Flasks were incubated at 37° under agitation until a cell concentration corresponding to an optical density (λ = […]) of 0.6 was reached (no dilution). This time span was routinely 3-4 h. Flasks were then supplemented with 5mM isopropylthiogalactoside (IPTG, Research Organics, Cleveland, Ohio, USA) and incubation was continued until the cell concentration reached an optical density of 0.2 at 16-fold dilution. Flasks were then supplemented with 1mM phenylmethylsulfonyl fluoride (PMSF) and rapidly chilled to 4°. The bacterial cells were recovered by centrifugation at 4°. The wet pellet was stored at -70°.
All steps below were performed at 4° unless otherwise indicated. Thawed cells were mixed with buffer A [50 mM tris(hydroxymethyl)[…] HCl(Tris-HCl, pH 7.4); 0.6 mM ethylenediaminetetraacetic acid (EDTA); 0.375 M NaCl, 0.2% Nonidet P-40 ® (BDH Chemicals Ltd., Poole, UK); 1mM PMSF], at a ratio of one part cells to nine parts buffer A. Diatomaceous earth (Celite 545 ® , John Manville, Lompoc, CA, USA) was added at a ratio of two parts to one part of wet cell weight. The resulting slurry was homogenized at high speed (ca. 20,000 rpm) on a Waring ® industrial blender for 8 x 15 sec. pulses. Cell debris/Celite ® was collected by centrifugation and the resulting pellet was extracted with 4.5 parts of buffer A to one part wet solids using the homogenization procedure described above. Supernatants from both homogenization steps were combined and soluble protein was precipitated by the addition of solid (NH₄)₂SO₄ to yield a final concentration of 75% saturation. This mixture was agitated for 60 min and the precipitate was recovered by centrifugation. The resulting pellet was suspended in buffer B [50mM Tris-HCl, pH 8; 30 mM NaCl; 1 mM DL-dithiothreitol(DTT); 1 mM EDTA; 1 mM PMSF; 10% glycerol], and dialyzed for 18h against the same buffer.
An aliquot of the dialyzed extract containing 150 mg of the protein was loaded onto a Sephadex A25 ® anion exchange column. (Pharmacia, Uppsala, Sweden) with bed dimensions of 70 cm length and 2.5 cm diameter. The sample was eluted isocratically with buffer B at a linear flow rate of 10 cm/h. Fractions containing HIV protease activity (see below for assay description) were combined, and soluble protein was precipitated by the addition of saturated aqueous (NH₄)₂SO₄ to yield a total (NH₄)₂SO₄ concentration of 85% saturation. Precipitated protein was removed by centrifugation and the resulting pellet was dissolved in buffer C [50 mM 2-(4-morpholino)ethanesulfonic acid (MES), pH 5.5; 150 mM NaCl; 1 mM DTT; 1 mM EDTA; 10% glycerol). This preparation was dialyzed for 18h against buffer C, and then frozen at -70°. All crude extracts were purified by chromatography in aliquots containing 150 mg of protein in the same manner as described above. […]

Another experiment has as its system H9/HTLV-IIIB. As to the kind of experiment: Inhibition of syncytia formation in HIV-infected C8166 cells (antiviral screen adapted from plaque assay of Harada et al.). The experiment is classed as cell-based. Particulars: Human immunodeficiency virus 1, IIIB, 72 h. From the text:
Typical of such procedures are those described by S. Harada and N. Yamamoto, Jpn. J. Cancer Res. (Gann), 76, 432 (1985), and S. Harada et al., Science, 229, 563 (1985). An assay based on the latter procedures is described in the examples hereinafter.
The following protocol, used for screening antiviral effects of the compounds of formula 1 , is adapted from a plaque assay utilizing HTLV-I transformed cells which was developed by Harada et al., supra. HTLV-I transformed cells are used in these assays because of the rapidity with which HIV will replicate in these cells. • 1. The test compound is dissolved in dimethylsulfoxide to a concentration of 5 mg/mL. The resultant solution can be stored at 4° until used. • 2. The resultant solution is diluted in RPMI 1640 (Gibco Laboratories, St. Lawrence, MA, USA) to four times (4x) the final concentration which is to be tested. Once diluted in RPMI 1640, the solution is used in the cell culture assay within 4 h. • 3. The 4x solution (50µL) is added to triplicate wells of a 96 well flat bottomed microtiter plate. […] Infectious titer of virus stocks are as previously determined by end point dilution on C8166 cells. […] Plates are then removed and centers of syncytia are counted in each well by low power phase contrast light microscopy. […] Percent inhibition of syncytia formation is calculated by the formula: [formula]

[1] abbreviates: recombinant HIV protease HPLC assay, values in parenthesis in text, read-out: IC₅₀.

For orientation: inhibition means the relative decrease from the control value, in per cent. In the case of `CC(C)(C)OC(=O)NC(CNC(CC1CC1)C(=O)NC(CCC(=O)O)C(=O)NCCCc1ccccc1)Cc1ccccc1` (stereo not drawn) [Example 2, Boc-PheΨ[CH₂NH]Cpa-Glu-NHCH₂CH₂CH₂Ph], the IC50 on HIV protease was 13 nM. In the experiment on H9/HTLV-IIIB, this molecule gave an inhibition at 20 µg/mL of 54%.
For `CC(C)(C)OC(=O)NC(CC1CCCCC1)C(O)CC(=O)NC(CCC(=O)O)C(=O)NCCCc1ccccc1` (stereo not shown) [Example 4, Boc-ACHPA-Glu-NHCH₂CH₂CH₂Ph], in that order: 7 nM and 96%.
As to Boc-PheΨ[CH₂NH]Cpa-Glu-NHCH₂CH₂-(4F-Ph), the IC50 at HIV protease (setting [1]) was 8.4 nM.
Take “Boc-PheΨ[CH₂NH]Cpa-Glu-NHCH₂CH₂CH₂-(4F-Ph)”: the IC50 on HIV protease (setting [1]) stood at 8 nM.
Consider Boc-homoACHPA-Glu-NHCH₂CH₂CH₂Ph, for which the IC50 on HIV protease (setting [1]) was determined as 68 nM.
